One may read the stoichiometry N as a count of units in the complex or per binding partner.

The source of these data is paper PMC3789958, “A Bacterial Glucanotransferase Can Replace the Complex Maltose Metabolism Required for Starch to Sucrose Conversion in Leaves at Night*” (The Journal of Biological Chemistry, 2013).

Data set [1] concerns the target T1, MalQ (Escherichia coli, UniProt P15977).
T1 construct: recombinant in E. coli, His-tagged, IMAC purified; biotinylated or amine-coupled for SPR
T1 sequence (P15977 1-694): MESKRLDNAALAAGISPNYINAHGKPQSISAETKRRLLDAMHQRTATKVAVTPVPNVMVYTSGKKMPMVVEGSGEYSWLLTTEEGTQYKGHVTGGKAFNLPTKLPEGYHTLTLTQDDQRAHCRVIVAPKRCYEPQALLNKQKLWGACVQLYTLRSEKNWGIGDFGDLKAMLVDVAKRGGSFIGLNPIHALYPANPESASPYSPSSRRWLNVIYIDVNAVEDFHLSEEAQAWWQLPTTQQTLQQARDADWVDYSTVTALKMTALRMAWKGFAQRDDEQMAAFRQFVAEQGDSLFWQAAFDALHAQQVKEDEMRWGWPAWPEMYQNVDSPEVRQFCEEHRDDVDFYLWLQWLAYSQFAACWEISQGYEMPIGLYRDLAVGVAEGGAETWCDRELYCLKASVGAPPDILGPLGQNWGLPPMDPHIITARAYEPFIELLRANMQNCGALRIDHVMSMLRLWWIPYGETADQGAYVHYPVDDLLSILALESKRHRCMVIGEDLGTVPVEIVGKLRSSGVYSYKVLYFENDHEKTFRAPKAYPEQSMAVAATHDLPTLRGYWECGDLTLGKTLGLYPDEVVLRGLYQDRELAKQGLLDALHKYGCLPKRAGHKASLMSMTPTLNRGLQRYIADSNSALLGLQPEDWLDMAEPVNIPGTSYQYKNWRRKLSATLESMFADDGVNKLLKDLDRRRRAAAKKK
Put plainly: SPR, steady-state affinity fit, biotinylated protein on streptavidin chip. Format: binding. The conditions noted are these: 10 mM HEPES pH 7.0, 25 °C. In general terms: SPR reads the build-up and loss of mass on a sensor chip optically.

Data set [2] concerns the target T2, DPE2 (Arabidopsis thaliana, UniProt Q8RXD9).
T2 construct: recombinant in E. coli Rosetta II, pET151, N-terminal His6 tag removed with TEV protease; homodimer; biotinylated for SPR
T2 sequence (Q8RXD9 1-955): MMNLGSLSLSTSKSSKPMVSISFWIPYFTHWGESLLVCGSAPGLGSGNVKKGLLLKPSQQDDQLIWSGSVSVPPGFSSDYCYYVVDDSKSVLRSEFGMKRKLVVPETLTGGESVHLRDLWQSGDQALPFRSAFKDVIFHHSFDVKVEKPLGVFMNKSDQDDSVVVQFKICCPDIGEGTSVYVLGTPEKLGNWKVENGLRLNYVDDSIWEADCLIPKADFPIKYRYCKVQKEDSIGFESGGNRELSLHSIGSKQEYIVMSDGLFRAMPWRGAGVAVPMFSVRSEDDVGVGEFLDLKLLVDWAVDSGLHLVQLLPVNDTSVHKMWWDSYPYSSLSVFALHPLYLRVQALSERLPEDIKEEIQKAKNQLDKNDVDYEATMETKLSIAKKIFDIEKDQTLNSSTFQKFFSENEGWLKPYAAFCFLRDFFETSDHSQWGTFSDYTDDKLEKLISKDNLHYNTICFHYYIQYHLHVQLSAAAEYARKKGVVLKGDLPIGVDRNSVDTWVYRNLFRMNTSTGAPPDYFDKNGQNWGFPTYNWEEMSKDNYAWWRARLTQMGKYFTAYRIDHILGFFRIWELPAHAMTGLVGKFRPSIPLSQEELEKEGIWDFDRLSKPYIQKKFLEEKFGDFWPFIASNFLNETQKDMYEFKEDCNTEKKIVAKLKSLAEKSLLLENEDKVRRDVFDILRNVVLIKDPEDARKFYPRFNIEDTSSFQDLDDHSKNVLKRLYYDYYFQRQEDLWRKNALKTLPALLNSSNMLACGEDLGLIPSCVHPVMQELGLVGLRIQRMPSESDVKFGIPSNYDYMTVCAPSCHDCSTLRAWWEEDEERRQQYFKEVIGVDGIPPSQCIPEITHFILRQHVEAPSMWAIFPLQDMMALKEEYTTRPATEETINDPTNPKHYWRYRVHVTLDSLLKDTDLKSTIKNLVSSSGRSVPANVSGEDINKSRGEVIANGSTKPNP
Described as above. The note with it: 10 mM HEPES pH 7.0, 25 °C. It counts as binding.

The target in data set [3] is T1, MalQ. In words: SPR, steady-state affinity fit, MalQ amine-coupled to CM5 chip. Format: binding. The note with it: 10 mM HEPES pH 7.0, 25 °C; read-out: dissociation constant.
For data set [4], the target named is T2, DPE2. Put plainly: coupled hexokinase / glucose-6-phosphate dehydrogenase assay, Hanes plot. Format: biochemical. The conditions noted are these: maltose as donor, glycogen as acceptor; two separate preparations; pH 7.9, 1 mM MgCl2.
Data set [5] concerns the target T1, MalQ. The data set is described as above. Format: biochemical. The conditions noted are these: maltose as donor, Glc7 as acceptor; two separate preparations; pH 7.9, 1 mM MgCl2.
Data set [6] deals with the molecule itself. Put plainly: SEC; Superdex S-200 16/60 in 25 mM HEPES (pH 7.5), 50 mM NaCl; purified DPE2 after His tag cleavage; elution compared with molecular mass markers. In general terms: In gel filtration, larger molecules generally elute earlier.

Regarding `OC[C@H]1O[C@H](O[C@H]2[C@H](O)[C@@H](O)[C@@H](O[C@H]3[C@H](O)[C@@H](O)[C@@H](O[C@H]4[C@H](O)[C@@H](O)[C@@H](O[C@H]5[C@H](O)[C@@H](O)C(O)O[C@@H]5CO)O[C@@H]4CO)O[C@@H]3CO)O[C@@H]2CO)[C@H](O)[C@@H](O)[C@@H]1O` (stereo partly drawn) [Glc5], the dissociation constant result on MalQ [1] was “progressively lower affinities for Glc5, Glc6, and Glc7”; on DPE2 [2] it was “bound malto-oligosaccharides Glc5, Glc6, and Glc7 more strongly than Glc4”.

For `OC[C@H]1O[C@H](O[C@H]2[C@H](O)[C@@H](O)[C@@H](O[C@H]3[C@H](O)[C@@H](O)[C@@H](O[C@H]4[C@H](O)[C@@H](O)[C@@H](O[C@H]5[C@H](O)[C@@H](O)[C@@H](O[C@H]6[C@H](O)[C@@H](O)C(O)O[C@@H]6CO)O[C@@H]5CO)O[C@@H]4CO)O[C@@H]3CO)O[C@@H]2CO)[C@H](O)[C@@H](O)[C@@H]1O` (stereo partly drawn) [Glc6], the dissociation constant result at MalQ [1] was “progressively lower affinities for Glc5, Glc6, and Glc7”; at DPE2 [2], “bound malto-oligosaccharides Glc5, Glc6, and Glc7 more strongly than Glc4”.

`OC[C@H]1O[C@H](O[C@H]2[C@H](O)[C@@H](O)[C@@H](O[C@H]3[C@H](O)[C@@H](O)C(O)O[C@@H]3CO)O[C@@H]2CO)[C@H](O)[C@@H](O)[C@@H]1O` (stereo partly drawn) [Glc3]: the Kd at MalQ [3] turned out to be 260 nM.

`OC[C@H]1O[C@H](O[C@H]2[C@H](O)[C@@H](O)[C@@H](O[C@H]3[C@H](O)[C@@H](O)[C@@H](O[C@H]4[C@H](O)[C@@H](O)C(O)O[C@@H]4CO)O[C@@H]3CO)O[C@@H]2CO)[C@H](O)[C@@H](O)[C@@H]1O` (stereo partly drawn) [Glc4]: the Kd at MalQ [3] is 410 nM. Further, the dissociation constant result at DPE2 [2] is “bound malto-oligosaccharides Glc5, Glc6, and Glc7 more strongly than Glc4”.

Take `OC[C@H]1O[C@H](O[C@H]2[C@H](O)[C@@H](O)C(O)O[C@@H]2CO)[C@H](O)[C@@H](O)[C@@H]1O` (stereo partly drawn) [maltose]: the Km is 2.9 and 2.3 mM at DPE2 [4]; 2.1 and 1.9 mM on MalQ [5].

Turning to `OC[C@H]1O[C@H](O[C@H]2[C@H](O)[C@@H](O)[C@@H](O[C@H]3[C@H](O)[C@@H](O)[C@@H](O[C@H]4[C@H](O)[C@@H](O)[C@@H](O[C@H]5[C@H](O)[C@@H](O)[C@@H](O[C@H]6[C@H](O)[C@@H](O)[C@@H](O[C@H]7[C@H](O)[C@@H](O)C(O)O[C@@H]7CO)O[C@@H]6CO)O[C@@H]5CO)O[C@@H]4CO)O[C@@H]3CO)O[C@@H]2CO)[C@H](O)[C@@H](O)[C@@H]1O` (stereo partly drawn) [Glc7], the dissociation constant entry is “progressively lower affinities for Glc5, Glc6, and Glc7” on MalQ [1]; “bound malto-oligosaccharides Glc5, Glc6, and Glc7 more strongly than Glc4” at DPE2 [2].

B1: DPE2 (4-alpha-glucanotransferase, disproportionating enzyme 2) from Arabidopsis, recombinant (enzyme, Arabidopsis thaliana, UniProt Q8RXD9 1-955, looked up)
chain: T2 sequence (Q8RXD9 1-955)
notes: DPE2, cytosolic 4-alpha-glucanotransferase of Arabidopsis thaliana, At2g40840; also called native DPE2; recombinant DPE2; source: E. coli Rosetta II, purified (nickel IMAC, TEV protease treatment, second IMAC, Superdex S-200); not shown: His6, N-terminal, cleaved
Regarding B1, the “stoichiometry N” value in data set [6] was 2.
